Assay results taken from PubChem BioAssay (NCI).
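Grown in 96-well plates, cells were treated for 48 hours with each compound at five concentrations. Insufficient inhibition: endpoint recorded as highest concentration tested. GI50 = concentration required for 50% inhibition of growth. At the TGI there is no net growth.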

Key:
Test in all cases: NCI-60 cell line screen, 48 h
OVCAR-4 ovarian = tested on: OVCAR-4 ovarian
MDA-MB-231 breast = tested on: MDA-MB-231 breast
CCRF-CEM leukemia = tested on: CCRF-CEM leukemia
SR leukemia = tested on: SR leukemia
MCF7 breast = tested on: MCF7 breast
KM12 colon = tested on: KM12 colon
SK-MEL-5 melanoma = tested on: SK-MEL-5 melanoma
T-47D breast = tested on: T-47D breast
HCC-2998 colon = tested on: HCC-2998 colon
HT29 colon = tested on: HT29 colon

SMILES | GI50 (OVCAR-4 ovarian) | TGI (OVCAR-4 ovarian) | GI50 (MDA-MB-231 breast) | TGI (MDA-MB-231 breast) | GI50 (CCRF-CEM leukemia) | TGI (CCRF-CEM leukemia) | GI50 (SR leukemia) | TGI (SR leukemia) | GI50 (MCF7 breast) | TGI (MCF7 breast) | GI50 (KM12 colon) | TGI (KM12 colon) | GI50 (SK-MEL-5 melanoma) | TGI (SK-MEL-5 melanoma) | GI50 (T-47D breast) | TGI (T-47D breast) | GI50 (HCC-2998 colon) | GI50 (HT29 colon) | TGI (HT29 colon) | TGI (HCC-2998 colon)
CCOC(=O)c1ccccc1OC(=O)NNc1ccccc1 | 15.2 µM | > 100 µM | 10.5 µM | > 100 µM | 1.8 µM | > 100 µM | 1.47 µM | > 100 µM | 8.14 µM | > 100 µM | 0.173 µM | > 56.4 µM | 1.43 µM | > 33.2 µM | 0.892 µM | > 100 µM | 0.583 µM | > 100 µM | > 100 µM | –
CCOC(=O)C1=C(C)N=c2s/c(=C\c3ccccc3O)c(=O)n2C1c1ccc(OC)c2ccccc12 (centres undefined) | 2.01 µM | 5.18 µM | 2.69 µM | 6.79 µM | 23.2 µM | > 100 µM | 4.4 µM | 58.8 µM | 4.36 µM | 32 µM | 9.66 µM | > 100 µM | 15.6 µM | 64.8 µM | 5.28 µM | 22.8 µM | 8.43 µM | 8.29 µM | 25.1 µM | 58.1 µM
C[C@]12CC[C@@H]3c4cc(OC(F)F)c(O)cc4CC[C@H]3[C@@H]1CC[C@@H]2OS(N)(=O)=O | 15.8 µM | 97.6 µM | 2.68 µM | 41.5 µM | 0.393 µM | > 100 µM | 0.422 µM | > 100 µM | 0.566 µM | 47.1 µM | 0.545 µM | 31 µM | 0.634 µM | 13.3 µM | 1.02 µM | 50.7 µM | 1.94 µM | 0.846 µM | 17.8 µM | 33.4 µM
COc1ccc2sc3cccc(NCCN(C)C)c3c(=O)c2c1 | 3.72 µM | 16.5 µM | 1.57 µM | 4.29 µM | 2.43 µM | 8.39 µM | 2.29 µM | 5.86 µM | 1.76 µM | 3.9 µM | 3.72 µM | 12.1 µM | 2.45 µM | 6.27 µM | 2.76 µM | 9.78 µM | 1.83 µM | 2.03 µM | 4.6 µM | 3.39 µM
CCOC(=O)[C@@H](C)C[C@H](Cc1ccccc1)NC(=O)c1nc([C@@H](C[C@H](C(C)C)N(C)C(=O)[C@@H](NC(=O)[C@H]2CCCCN2C)C(C)C)OC(C)=O)sc1CCOCc1ccccc1 | 0.222 µM | > 11.1 µM | 0.175 µM | 1.02 µM | 0.0795 µM | > 6.52 µM | 0.0313 µM | 1.87 µM | 0.0404 µM | 4.33 µM | 0.0442 µM | 1.48 µM | 0.05 µM | 0.38 µM | 0.0721 µM | > 11.1 µM | 0.119 µM | 0.0375 µM | 1.4 µM | 1.13 µM
